Data taken from BigSolDB 2.1.

Oc1ccc(OCc2ccccc2)cc1
solubility (mole fraction)
Details	283.15 K	288.15 K	293.15 K	298.15 K	303.15 K	308.15 K	313.15 K	318.15 K	323.15 K	328.15 K
in ethanol	0.0483	0.056	0.0644	0.0737	0.0846	0.0956	0.109	0.123	0.137	0.155
in ethylene glycol	0.0053	0.00664	0.00822	0.0101	0.0125	0.0149	0.018	0.0216	0.0257	0.0302
in isopropanol	0.0217	0.0261	0.0308	0.0365	0.0425	0.0503	0.0583	0.0671	0.0778	0.0896
in n-propanol	0.0381	0.0446	0.052	0.0605	0.0702	0.0804	0.0931	0.106	0.12	0.137
in water	3.57e-06	4.49e-06	5.64e-06	7.04e-06	8.71e-06	1.07e-05	1.3e-05	1.57e-05	1.91e-05	2.29e-05
